Drawing on ChEMBL document CHEMBL1144329, “De novo design, synthesis, and in vitro activity of LFA-1 antagonists based on a bicyclic[5.5]hydantoin scaffold” (Bioorg Med Chem Lett, 2005), this text covers IC50 for eleven compounds.

In general, IC50 refers to the point on the concentration scale where inhibition reaches its midpoint. A higher IC50 goes with a need for much substance.

SMILES strings stand for the structures.

This experiment deals with Intercellular adhesion molecule (ICAM-1), Integrin alpha-L/beta-2 (Homo sapiens, UniProt P05107+P20701). Put plainly: Inhibitory concentration against leukocyte function-associated antigen-1 in HSB-2 human lymphoblast and H1HeLa cell adhesion assay. The class given is functional, cell-based, H1-HeLa.
Intercellular adhesion molecule (ICAM-1), Integrin alpha-L/beta-2, sequence (P20701 whole entry): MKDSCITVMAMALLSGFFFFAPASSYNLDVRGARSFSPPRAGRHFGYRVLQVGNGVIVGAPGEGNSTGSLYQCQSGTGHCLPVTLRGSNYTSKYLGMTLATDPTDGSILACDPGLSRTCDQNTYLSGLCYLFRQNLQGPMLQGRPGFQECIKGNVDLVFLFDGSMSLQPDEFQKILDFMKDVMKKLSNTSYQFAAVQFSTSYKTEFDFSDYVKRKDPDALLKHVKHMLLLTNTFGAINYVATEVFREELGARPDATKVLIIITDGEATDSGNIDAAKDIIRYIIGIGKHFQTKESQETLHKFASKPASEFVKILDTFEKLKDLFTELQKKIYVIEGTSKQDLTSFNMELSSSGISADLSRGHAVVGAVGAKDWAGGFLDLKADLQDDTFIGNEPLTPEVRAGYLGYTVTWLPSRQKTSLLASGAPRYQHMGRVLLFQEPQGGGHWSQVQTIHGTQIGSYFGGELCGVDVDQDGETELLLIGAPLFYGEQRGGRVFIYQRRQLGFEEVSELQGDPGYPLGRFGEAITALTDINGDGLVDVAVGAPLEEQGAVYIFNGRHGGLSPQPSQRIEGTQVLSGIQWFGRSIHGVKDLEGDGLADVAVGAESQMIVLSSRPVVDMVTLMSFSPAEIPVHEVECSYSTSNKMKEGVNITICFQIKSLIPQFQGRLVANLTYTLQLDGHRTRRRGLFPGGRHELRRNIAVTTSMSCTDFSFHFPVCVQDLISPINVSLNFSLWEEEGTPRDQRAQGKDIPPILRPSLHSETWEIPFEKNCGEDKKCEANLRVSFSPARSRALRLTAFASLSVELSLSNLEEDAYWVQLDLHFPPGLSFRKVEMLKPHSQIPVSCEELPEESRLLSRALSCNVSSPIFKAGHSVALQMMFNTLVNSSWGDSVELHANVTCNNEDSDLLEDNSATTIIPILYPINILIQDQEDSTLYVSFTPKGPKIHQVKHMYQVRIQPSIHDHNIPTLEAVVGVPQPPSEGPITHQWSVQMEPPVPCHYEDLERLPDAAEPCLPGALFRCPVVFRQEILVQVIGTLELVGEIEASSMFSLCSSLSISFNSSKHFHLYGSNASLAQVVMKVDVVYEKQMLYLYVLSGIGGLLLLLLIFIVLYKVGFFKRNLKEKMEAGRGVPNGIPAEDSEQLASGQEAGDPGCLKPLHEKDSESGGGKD
Intercellular adhesion molecule (ICAM-1), Integrin alpha-L/beta-2, sequence (P05362 whole entry, further chain): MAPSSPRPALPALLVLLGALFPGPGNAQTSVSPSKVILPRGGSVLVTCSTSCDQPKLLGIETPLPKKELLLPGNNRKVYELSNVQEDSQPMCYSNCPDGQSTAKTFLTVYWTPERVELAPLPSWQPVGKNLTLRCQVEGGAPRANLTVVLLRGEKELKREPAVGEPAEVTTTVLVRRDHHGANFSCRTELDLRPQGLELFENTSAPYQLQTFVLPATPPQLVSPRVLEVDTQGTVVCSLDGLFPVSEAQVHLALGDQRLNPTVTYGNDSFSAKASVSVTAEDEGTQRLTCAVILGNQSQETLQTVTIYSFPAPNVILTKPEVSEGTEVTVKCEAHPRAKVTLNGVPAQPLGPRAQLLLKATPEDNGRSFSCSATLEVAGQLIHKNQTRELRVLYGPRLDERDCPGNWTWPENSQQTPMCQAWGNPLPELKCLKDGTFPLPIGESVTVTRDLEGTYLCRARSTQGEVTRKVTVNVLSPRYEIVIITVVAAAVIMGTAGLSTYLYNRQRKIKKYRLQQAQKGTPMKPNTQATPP
Intercellular adhesion molecule (ICAM-1), Integrin alpha-L/beta-2, sequence (P05107 whole entry): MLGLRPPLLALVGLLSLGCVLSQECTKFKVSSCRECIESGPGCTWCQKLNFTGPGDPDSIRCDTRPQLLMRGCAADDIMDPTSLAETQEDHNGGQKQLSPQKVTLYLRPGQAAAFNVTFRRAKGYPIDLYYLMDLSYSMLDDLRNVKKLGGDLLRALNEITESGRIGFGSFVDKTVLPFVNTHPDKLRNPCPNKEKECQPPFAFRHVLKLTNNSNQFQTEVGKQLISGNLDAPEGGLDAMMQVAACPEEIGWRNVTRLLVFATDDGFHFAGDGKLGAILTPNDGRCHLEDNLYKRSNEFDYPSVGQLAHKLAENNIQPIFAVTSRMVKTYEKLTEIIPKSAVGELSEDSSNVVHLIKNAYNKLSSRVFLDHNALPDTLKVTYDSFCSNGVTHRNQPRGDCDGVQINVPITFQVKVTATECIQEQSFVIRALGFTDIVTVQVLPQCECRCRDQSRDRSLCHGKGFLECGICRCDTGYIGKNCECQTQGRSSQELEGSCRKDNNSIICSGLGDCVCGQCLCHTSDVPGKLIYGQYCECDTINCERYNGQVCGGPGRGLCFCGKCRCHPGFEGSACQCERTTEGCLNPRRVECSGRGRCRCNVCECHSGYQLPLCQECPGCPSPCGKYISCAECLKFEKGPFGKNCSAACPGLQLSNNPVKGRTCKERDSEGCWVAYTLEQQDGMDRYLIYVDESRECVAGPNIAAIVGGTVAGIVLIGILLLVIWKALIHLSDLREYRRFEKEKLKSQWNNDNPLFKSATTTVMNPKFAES
Take `O=C1[C@H]2C[C@@H](OCc3cccc(-c4ccc(Cl)cc4)c3)CN2C(=O)N1c1cc(Cl)cc(Cl)c1`: half-maximal inhibition (IC50) required 620 nM.
The figure for `O=C1[C@@H]2C[C@H](SCc3cccc(-c4ccc(Br)cc4)c3)CN2C(=O)N1c1cc(Cl)cc(Cl)c1` is 290 nM.
Regarding `CCN(Cc1cccc(-c2ccc(C#N)cc2)c1)[C@H]1C[C@H]2C(=O)N(c3cc(Cl)cc(Cl)c3)C(=O)N2C1`, it took 730 nM to reach half-maximal inhibition (IC50).
The figure for `O=C1[C@@H]2C[C@H](OCc3cccc(-c4ccc(Br)cc4)c3)CN2C(=O)N1c1cc(Cl)cc(Cl)c1` is 85 nM; for `O=C1[C@@H]2C[C@H](OCc3cccc(-c4cccc(Br)c4)c3)CN2C(=O)N1c1cc(Cl)cc(Cl)c1` it is 755 nM; for `N#Cc1ccc(-c2cccc(CO[C@H]3C[C@H]4C(=O)N(c5cc(Cl)cc(Cl)c5)C(=O)N4C3)c2)cc1` it is 270 nM.
Next, `O=C1[C@@H]2C[C@@H](OCc3cccc(-c4ccc(Br)cc4)c3)CN2C(=O)N1c1cc(Cl)cc(Cl)c1`: 935 nM.
The compound `O=C1[C@@H]2C[C@H](Oc3ccc(-c4ccc(Br)cc4)cc3)CN2C(=O)N1c1cc(Cl)cc(Cl)c1` had an IC50 of 480 nM.
The figure for `CN(Cc1cccc(-c2ccc(Br)cc2)c1)[C@H]1C[C@H]2C(=O)N(c3cc(Cl)cc(Cl)c3)C(=O)N2C1` is 175 nM; for `O=C1[C@H]2C[C@@H](OCc3cccc(-c4ccc(Br)cc4)c3)CN2C(=O)N1c1cc(Cl)cc(Cl)c1` it is 275 nM.
Next, `N#Cc1ccc(-c2cccc(CN[C@H]3C[C@H]4C(=O)N(c5cc(Cl)cc(Cl)c5)C(=O)N4C3)c2)cc1`: 175 nM.
